Experimental data reported in patent US10392397B2, “Heterocyclic thiosemicarbazone derivatives and their therapeutical applications” (NANTBIO, INC., priority 2015, dated 2019).

Legend:
Type in all cases: cell-based
KM12 = experiment: SRB growth inhibition, KM12; settings: Homo sapiens, KM12, Colon Cancer, 48 h
Procedure: (§1) Human tumor cell lines were grown in RPM(1640 medium containing 5% fetal bovine serum and 2 mM L-glutamine. For a typical screening experiment, cells were inoculated into 96 well microtiter plates in 100 μL at plating densities ranging from 5,000 to 40,000 cells/well depending on the doubling time of individual cell lines. After cell inoculation, the microtiter plates were incubated at 37° C., 5% CO2, 95% air and 100% relative humidity for 24 h prior to addition of Compound 3 above.
(§2) After 24 h, two plates of each cell line were fixed in situ with TCA, to represent a measurement of the cell population for each cell line at the time of drug addition (Tz). […]
(§3) Following drug addition, the plates were incubated for an additional 48 h at 37° C., 5% CO2, 95% air, and 100% relative humidity. […] Bound stain was subsequently solubilized with 10 mM trizma base, and the absorbance was read on an automated plate reader at a wavelength of 515 nm. […] Using the seven absorbance measurements [time zero, (Tz), control growth, (C), and test growth in the presence of drug at the five concentration levels (Ti)], the percentage growth was calculated at each of the drug concentrations levels. Percentage growth inhibition was calculated as: [(Ti-Tz)/(C-Tz)]×100 for concentrations for which Ti>/=Tz [(Ti-Tz)/Tz]×100 for concentrations for which Ti<Tz. […]

UO-31 = experiment: SRB growth inhibition, UO-31; settings: Homo sapiens, UO-31, Renal Cancer, 48 h
Procedure: as §1, §2, §3

SF-539 = experiment: SRB growth inhibition, SF-539; settings: Homo sapiens, SF-539, CNS Cancer, 48 h
Procedure: as §1, §2, §3

SK-MEL-2 = experiment: SRB growth inhibition, SK-MEL-2; settings: Homo sapiens, SK-MEL-2, Melanoma, 48 h
Procedure: as §1, §2, §3

M14 = experiment: SRB growth inhibition, M14; settings: Homo sapiens, M14, Melanoma, 48 h
Procedure: as §1, §2, §3

CAKI-1 = experiment: SRB growth inhibition, CAKI-1; settings: Homo sapiens, CAKI-1, Renal Cancer, 48 h
Procedure: as §1, §2, §3

IGROV1 = experiment: SRB growth inhibition, IGROV1; settings: Homo sapiens, IGROV-1, IGROV1, Ovarian Cancer, 48 h
Procedure: as §1, §2, §3

OVCAR-5 = experiment: SRB growth inhibition, OVCAR-5; settings: Homo sapiens, OVCAR-5, Ovarian Cancer, 48 h
Procedure: as §1, §2, §3

MDA-MB-231/ATCC = experiment: SRB growth inhibition, MDA-MB-231/ATCC; settings: Homo sapiens, Breast Cancer, 48 h
Procedure: as §1, §2, §3

SF-268 = experiment: SRB growth inhibition, SF-268; settings: Homo sapiens, SF-268, CNS Cancer, 48 h
Procedure: as §1, §2, §3

CCRF-CEM = experiment: SRB growth inhibition, CCRF-CEM; settings: Homo sapiens, Leukemia, 48 h
Procedure: as §1, §2, §3

NCI-H23 = experiment: SRB growth inhibition, NCI-H23; settings: Homo sapiens, NCI-H23, Non-Small Cell Lung Cancer, 48 h
Procedure: as §1, §2, §3

SN12C = experiment: SRB growth inhibition, SN12C; settings: Homo sapiens, Renal Cancer, 48 h
Procedure: as §1, §2, §3

SR = experiment: SRB growth inhibition, SR; settings: Homo sapiens, Leukemia, 48 h
Procedure: as §1, §2, §3

MDA-MB-435 = experiment: SRB growth inhibition, MDA-MB-435; settings: Homo sapiens, MDA-MB-435, Melanoma, 48 h
Procedure: as §1, §2, §3

UACC-257 = experiment: SRB growth inhibition, UACC-257; settings: Homo sapiens, UACC-257, Melanoma, 48 h
Procedure: as §1, §2, §3

A498 = experiment: SRB growth inhibition, A498; settings: Homo sapiens, A498, Renal Cancer, 48 h
Procedure: as §1, §2, §3

HL-60(TB) = experiment: SRB growth inhibition, HL-60(TB); settings: Homo sapiens, Leukemia, 48 h
Procedure: as §1, §2, §3

SK-OV-3 = experiment: SRB growth inhibition, SK-OV-3; settings: Homo sapiens, SK-OV-3, Ovarian Cancer, 48 h
Procedure: as §1, §2, §3

SK-MEL-28 = experiment: SRB growth inhibition, SK-MEL-28; settings: Homo sapiens, SK-MEL-28, Melanoma, 48 h
Procedure: as §1, §2, §3

HCT-116 = experiment: SRB growth inhibition, HCT-116; settings: Homo sapiens, HCT-116, Colon Cancer, 48 h
Procedure: as §1, §2, §3

OVCAR-3 = experiment: SRB growth inhibition, OVCAR-3; settings: Homo sapiens, OVCAR-3, Ovarian Cancer, 48 h
Procedure: as §1, §2, §3

SK-MEL-5 = experiment: SRB growth inhibition, SK-MEL-5; settings: Homo sapiens, SK-MEL-5, Melanoma, 48 h
Procedure: as §1, §2, §3

HOP-62 = experiment: SRB growth inhibition, HOP-62; settings: Homo sapiens, HOP-62, Non-Small Cell Lung Cancer, 48 h
Procedure: as §1, §2, §3

U251 = experiment: SRB growth inhibition, U251; settings: Homo sapiens, U-251, U251, CNS Cancer, 48 h
Procedure: as §1, §2, §3

RXF 393 = experiment: SRB growth inhibition, RXF 393; settings: Homo sapiens, RXF 393, Renal Cancer, 48 h
Procedure: as §1, §2, §3

A549/ATCC = experiment: SRB growth inhibition, A549/ATCC; settings: Homo sapiens, Non-Small Cell Lung Cancer, 48 h
Procedure: as §1, §2, §3

SNB-19 = experiment: SRB growth inhibition, SNB-19; settings: Homo sapiens, SNB-19, CNS Cancer, 48 h
Procedure: as §1, §2, §3

ACHN = experiment: SRB growth inhibition, ACHN; settings: Homo sapiens, Renal Cancer, 48 h
Procedure: as §1, §2, §3

MDA-MB-468 = experiment: SRB growth inhibition, MDA-MB-468; settings: Homo sapiens, MDA-MB-468, Breast Cancer, 48 h
Procedure: as §1, §2, §3

SNB-75 = experiment: SRB growth inhibition, SNB-75; settings: Homo sapiens, SNB-75, CNS Cancer, 48 h
Procedure: as §1, §2, §3

786-0 = experiment: SRB growth inhibition, 786-0; settings: Homo sapiens, 786-0, Renal Cancer, 48 h
Procedure: as §1, §2, §3

HCC-2998 = experiment: SRB growth inhibition, HCC-2998; settings: Homo sapiens, HCC-2998, Colon Cancer, 48 h
Procedure: as §1, §2, §3

HOP-92 = experiment: SRB growth inhibition, HOP-92; settings: Homo sapiens, HOP-92, Non-Small Cell Lung Cancer, 48 h
Procedure: as §1, §2, §3

BT-549 = experiment: SRB growth inhibition, BT-549; settings: Homo sapiens, BT-549, Breast Cancer, 48 h
Procedure: as §1, §2, §3

HCT-15 = experiment: SRB growth inhibition, HCT-15; settings: Homo sapiens, HCT-15, Colon Cancer, 48 h
Procedure: as §1, §2, §3

LOX IMVI = experiment: SRB growth inhibition, LOX IMVI; settings: Homo sapiens, Melanoma, 48 h
Procedure: as §1, §2, §3

MALME-3M = experiment: SRB growth inhibition, MALME-3M; settings: Homo sapiens, Melanoma, 48 h
Procedure: as §1, §2, §3

NCI-H460 = experiment: SRB growth inhibition, NCI-H460; settings: Homo sapiens, NCI-H460, Non-Small Cell Lung Cancer, 48 h
Procedure: as §1, §2, §3

K-562 = experiment: SRB growth inhibition, K-562; settings: Homo sapiens, K562, K-562, Leukemia, 48 h
Procedure: as §1, §2, §3

NCI-H322M = experiment: SRB growth inhibition, NCI-H322M; settings: Homo sapiens, Non-Small Cell Lung Cancer, 48 h
Procedure: as §1, §2, §3

HS 578T = experiment: SRB growth inhibition, HS 578T; settings: Homo sapiens, Breast Cancer, 48 h
Procedure: as §1, §2, §3

PC-3 = experiment: SRB growth inhibition, PC-3; settings: Homo sapiens, PC-3, Prostate Cancer, 48 h
Procedure: as §1, §2, §3

DU-145 = experiment: SRB growth inhibition, DU-145; settings: Homo sapiens, DU-145, Prostate Cancer, 48 h
Procedure: as §1, §2, §3

COLO 205 = experiment: SRB growth inhibition, COLO 205; settings: Homo sapiens, COLO 205, Colon Cancer, 48 h
Procedure: as §1, §2, §3

NCI/ADR-RES = experiment: SRB growth inhibition, NCI/ADR-RES; settings: Homo sapiens, Ovarian Cancer, 48 h
Procedure: as §1, §2, §3

EKVX = experiment: SRB growth inhibition, EKVX; settings: Homo sapiens, Non-Small Cell Lung Cancer, 48 h
Procedure: as §1, §2, §3

OVCAR-4 = experiment: SRB growth inhibition, OVCAR-4; settings: Homo sapiens, OVCAR-4, Ovarian Cancer, 48 h
Procedure: as §1, §2, §3

OVCAR-8 = experiment: SRB growth inhibition, OVCAR-8; settings: Homo sapiens, OVCAR-8, Ovarian Cancer, 48 h
Procedure: as §1, §2, §3

MOLT-4 = experiment: SRB growth inhibition, MOLT-4; settings: Homo sapiens, MOLT-4, Leukemia, 48 h
Procedure: as §1, §2, §3

T-47D = experiment: SRB growth inhibition, T-47D; settings: Homo sapiens, T47D, Breast Cancer, 48 h
Procedure: as §1, §2, §3

TK-10 = experiment: SRB growth inhibition, TK-10; settings: Homo sapiens, TK-10, Renal Cancer, 48 h
Procedure: as §1, §2, §3

UACC-62 = experiment: SRB growth inhibition, UACC-62; settings: Homo sapiens, UACC-62, Melanoma, 48 h
Procedure: as §1, §2, §3

SW-620 = experiment: SRB growth inhibition, SW-620; settings: Homo sapiens, SW-620, Colon Cancer, 48 h
Procedure: as §1, §2, §3

SF-295 = experiment: SRB growth inhibition, SF-295; settings: Homo sapiens, SF-295, CNS Cancer, 48 h
Procedure: as §1, §2, §3

RPMI-8226 = experiment: SRB growth inhibition, RPMI-8226; settings: Homo sapiens, RPMI-8226, Leukemia, 48 h
Procedure: as §1, §2, §3

NCI-H226 = experiment: SRB growth inhibition, NCI-H226; settings: Homo sapiens, NCI-H226, Non-Small Cell Lung Cancer, 48 h
Procedure: as §1, §2, §3

MCF7 = experiment: SRB growth inhibition, MCF7; settings: Homo sapiens, MCF7, Breast Cancer, 48 h
Procedure: as §1, §2, §3

NCI-H522 = experiment: SRB growth inhibition, NCI-H522; settings: Homo sapiens, NCI-H522, Non-Small Cell Lung Cancer, 48 h
Procedure: as §1, §2, §3

HT29 = experiment: SRB growth inhibition, HT29; settings: Homo sapiens, HT-29, HT29, Colon Cancer, 48 h
Procedure: as §1, §2, §3

S=C(N/N=C1/CCOc2cccnc21)N1CCN(c2ccccn2)CC1 [Example 3, (Z)—N′-(2H-pyrano[3,2-b]pyridin-4(3H)-ylidene)-4-(pyridin-2-yl)piperazine-1-carbothiohydrazide]
GI50 (KM12): 0.225 µM | GI50 (UO-31): 0.132 µM | GI50 (SF-539): 1.16 µM | GI50 (SK-MEL-2): 0.799 µM | GI50 (M14): 0.0375 µM | GI50 (CAKI-1): 0.151 µM | GI50 (IGROV1): < 0.01 µM | GI50 (OVCAR-5): 0.991 µM | GI50 (MDA-MB-231/ATCC): 0.0748 µM | GI50 (SF-268): 0.41 µM | GI50 (CCRF-CEM): < 0.01 µM | GI50 (NCI-H23): 0.0321 µM | GI50 (SN12C): 1.49 µM | GI50 (SR): 0.0655 µM | GI50 (MDA-MB-435): 0.271 µM | GI50 (UACC-257): 0.0118 µM | GI50 (A498): 0.192 µM | GI50 (HL-60(TB)): 0.0149 µM | GI50 (SK-OV-3): 0.082 µM | GI50 (SK-MEL-28): 0.472 µM | GI50 (HCT-116): < 0.01 µM | GI50 (OVCAR-3): < 0.01 µM | GI50 (SK-MEL-5): 0.222 µM | GI50 (HOP-62): 0.0372 µM | GI50 (U251): 0.0265 µM | GI50 (RXF 393): 1.34 µM | GI50 (A549/ATCC): 0.155 µM | GI50 (SNB-19): 0.433 µM | GI50 (ACHN): 0.196 µM | GI50 (MDA-MB-468): < 0.01 µM | GI50 (SNB-75): 1.08 µM | GI50 (786-0): 0.0771 µM | GI50 (HCC-2998): 0.701 µM | GI50 (HOP-92): 0.0167 µM | GI50 (BT-549): 0.0718 µM | GI50 (HCT-15): < 0.01 µM | GI50 (LOX IMVI): 0.0251 µM | GI50 (MALME-3M): 1.29 µM | GI50 (NCI-H460): 0.0388 µM | GI50 (K-562): < 0.01 µM | GI50 (NCI-H322M): 0.221 µM | GI50 (HS 578T): 0.754 µM | GI50 (PC-3): < 0.01 µM | GI50 (DU-145): 0.345 µM | GI50 (COLO 205): < 0.01 µM | GI50 (NCI/ADR-RES): 0.0374 µM | GI50 (EKVX): 0.14 µM | GI50 (OVCAR-4): 0.0165 µM | GI50 (OVCAR-8): 0.0374 µM | GI50 (MOLT-4): < 0.01 µM | GI50 (T-47D): < 0.01 µM | GI50 (TK-10): 0.748 µM | GI50 (UACC-62): 0.17 µM | GI50 (SW-620): < 0.01 µM | GI50 (SF-295): 0.232 µM | GI50 (RPMI-8226): < 0.01 µM | GI50 (NCI-H226): 0.338 µM | GI50 (MCF7): < 0.01 µM | GI50 (NCI-H522): 0.505 µM | GI50 (HT29): < 0.01 µM
